# Source: patent publication US7834065B2, “Medical-use two part reactive adhesive and medical-use resin having self-degradation property” (BMG Incorporated, priority 2006, dated 2010)
# Test system: mouse established cell line L929
# Experiment: Cytotoxicity test (neutral red uptake, NR50)
# Format: cell-based
# Details: L929 cells, 2 days incubation with sample; concentration at which 50% of the cells are killed
# Procedure: The cytotoxicity test was made according to methods described in J. Biomed. Mater. Res. 29, 829-835 (1995) and by use of a mouse established cell line L929. In detail, cell dispersion was prepared to be 10,000 cells/mL; and 0.1 mL of the cell dispersion was sowed in each well of the 96-well culture plate and incubated at 37° C. for 3 days. Subsequently, each of the aqueous solutions mentioned above was diluted to one of various concentrations, and was charged into respective well by 0.1 mL. Then, incubation was further continued for 2 days. Subsequently, 0.1 mL of neural red culture-medium solution as prepared as 150 microgram/mL was added into the each well; and the incubation was made at 37° C. for 3 hours. After the incubation, culture medium was removed; and the cells were fixed by 1 wt % glutaraldehyde aqueous solution and thereafter air-dried. Subsequently, 0.1 mL of water/ethanol solution (equal-volume mixture) having 1 wt % of acetic acid was added; and then neural red molecules that had been taken into the cells were extracted. Light absorbency at 541 nm was measured and NR50 values were obtained from result of this measurement. The NR50 value indicates a concentration at which 50% of the cells are killed. The smaller the NR50 value becomes, the larger becomes the toxicity.
row,Structure (SMILES),NR50 value [µg/mL]
1,C=O [Formaldehyde],1.7 ± 02
2,O=CCCCC=O [Glutaraldehyde],3.9 ± 0.7
